Tests used:
[1] = biological target: TNFα binding to TNF receptor (ECD-TNFR) (Homo sapiens, UniProt P01375); assay: Biacore in-solution competition/enhancement assay, TNFα/compound mix over immobilised ECD-TNFR; settings: Biacore A100/4000, 0.5-1 nM TNFα, highest concentration 20 μM; read-out: EC50 (compound induced enhanced binding of TNFα to TNF receptor)
Procedure: For this purpose a Biacore A100/4000 was used. […] For example a typical assay may use 20 μ[…] solution of compound. […] Control compounds were tested every 10-15 cycles. […] Background subtraction binding curves were analysed using the BIAevaluation software following standard procedures. The EC50 data was determined using a four parameter logistic fit. […] The RU (resonance unit) value for TNFα in the absence of compound was subtracted from the curves so these now show only the increase in binding induced by the compounds. The progress curves plateau at higher RU values as the concentration of compound increases.

[2] = biological target: T1, m-TNFα (Mus musculus, UniProt P06804); assay: Monomer exchange in TNFα trimers by mass spectrometry, compound pre-incubated with mouse TNFα; assay type: binding; settings: for off-rate from m-TNFα: 1:1 complex with m-TNFα mixed with h-TNFα; for cross species monomer subunit exchange: compound preincubated with m-TNFα, then h-TNFα added
T1 sequence (P06804 80-235 limits assumed): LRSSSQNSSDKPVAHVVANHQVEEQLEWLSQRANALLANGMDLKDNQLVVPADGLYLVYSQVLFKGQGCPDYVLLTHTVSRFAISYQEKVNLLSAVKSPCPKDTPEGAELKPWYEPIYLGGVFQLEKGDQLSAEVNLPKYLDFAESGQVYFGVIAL
Procedure: Human and mouse homotrimers of TNFα (H3 and M3 respectively) were incubated together and aliquots of the solution monitored by mass spectrometry appearance of the cross species heterotrimers. The mass spectrometric analysis confirmed that monomer exchange between native TNFα trimers was able to occur in solution. The exchange rate was slow and was monitored over a course of 4 hours before full equilibration was achieved (data not shown). The mechanism is unknown, although is it unlikely to involve formation of the dimeric forms as none of these were observed. Monomer exchange is likely to be occurring between pure human and mouse trimers, the mixing of mouse and human trimers simply makes this exchange visible by mass spectrometry.
The experiment was then repeated in reverse. Excess compound of formula 1 was incubated with Mouse TNFα, the excess compound of formula (1) was then removed. Mass Spectral analysis confirmed that a 1:1 complex had been formed between the compound of formula (1) and m-TNFα. Human TNFα was now added to this sample which was then subjected to mass spectral analysis over a number of hours. […] In addition there was evidence of formation of the ligated human homotrimer (H3L), the unligated mouse homotrimer (M3) and for unbound compound of formula (1) (L). […] Once this complex (M3L) has dissociated, monomer subunit exchange between the H3 and M3 species proceeds and the liberated ligand is then able to form complexes with all 4 trimer species present in solution.

[3] = biological target: TNFα (Homo sapiens, UniProt P01375); assay: Surface plasmon resonance kinetics of compound binding to immobilised TNFα (Biacore T100/T200); settings: for dissociation half-life (t1/2): from koff; for kon / koff: immobilised TNFα, HBS-P with 5% DMSO; for koff: read-out: dissociation rate constant (koff)
Procedure: Surface plasmon resonance was used to measure the association rate, the dissociation rate and the affinity of the compounds of formulae (1) and (2) for TNFα (FIGS. 13A and B). For the purpose of this study a Biacore T100/T200 was used.
TNFα was immobilised at pH5 to a level of 5-8 KRU onto a CMS sensor in HBS-P buffer (10 mM HEPES pH 7.4, 0.15 M NaCl, 0.005% Surfactant P20, BIAcore, GE Healthcare). The TNFα was then equilibrated in HBS-P with 5% DMSO for at least 5 hours. The samples were diluted from 10 mM stocks into DMSO matched buffer and left to solubilise for at least 5 hours. The flow rate was 30 μL/min.
This assay was performed by adding 4 or 5 concentrations of compound starting from a highest concentration of 25 μM for compound of formula (1) and 1 μM for compound of formula (2) and then serially diluting this sample. Background subtraction binding curves were analysed using the BIAevaluation software following standard procedures. Binding, affinity and kinetic parameters were determined using Biacore software. The kinetic data were fitted using the levenberg marquardt algorithm.

[4] = system: hTNFα-induced neutrophil recruitment; assay: Neutrophil recruitment in mice, compound pre-mixed with hTNFα and injected i.p.; assay type: in vivo, Balb/c mice; settings: for effect of compound alone on neutrophil recruitment: compound only mice, no TNFα; for neutrophil recruitment versus TNFα in the absence of the compound: sample 1, ratio compound:TNFα 0.1:1, i.p.; for neutrophil recruitment versus TNFα in the absence of the compound / inhibition of neutrophil recruitment: 2 h
Procedure: In separate studies, compounds of formula (1) and formula (2) were mixed with 20 μM solutions of TNFα dissolved in phosphate buffered saline (PBS) to a concentration of 2 μM, 20 μM and 200 μM. The ratio of each compound to TNFα was, therefore, 0.1:1 (sample 1), 1:1 (sample 2) and 10:1 (sample 3). […] This process separates protein bound compound and free compound. A control sample containing PBS only was processed in the same way to provide a vehicle control for the study. The concentration of eluted protein was determined using a Nanodrop (ND-1000). The TNFα:compound complexes were diluted in PBS to a concentration for injection of 0.03 μg/kg.
For the study, typically, each group contained 10 male Balb/c mice (Charles River) apart from an anti-human TNFα antibody positive control, which used a set of 5 mice.
Compound only mice were also included in the study to assess the effect of compound on neutrophil recruitment.
All mice were killed by cervical dislocation two hours post-injection of hTNFα (t=2 h) and the peritoneal cavity was lavaged with 3 mL of FACS buffer (500 mL PBS containing 2 g bovine serum albumin, 6 mL HEPES buffer and […]). Lavage fluid was aspirated and neutrophil numbers were assessed by staining cells with anti-Gr1 PE and anti-CD45 FITC by FACS as detailed below.
100 μL of lavage fluid from each sample was aliquoted into FACS tubes. A FACS cocktail was made up using anti-GR-1 PE (BD cat #553128 Lot #75542) at 1 in 39 dilution and anti-CD45 FITC (BD cat #553080 Lot #80807) at 1 in 19 dilution in FACS buffer. Fc block (BD Cat #553142 Lot #87810) was prepared 1 in 10 with FACS buffer and 10 μL added to each sample 5 minutes before adding the antibody cocktail. […] Samples were then left for 20 mins on ice. 1 mL of FACS Lyse solution (BD Cat #349202 Lot #29076, diluted 1:10 in dH2O) was added to each tube, mixed and left at room temperature for 5 minutes. 1 mL of FACS Buffer was then added to each tube and centrifuged at 400 g for 5 minutes. The FACS buffer was then carefully poured off and the tip of the tube dabbed on absorbent paper to leave the tube completely dry. Then […] of 1 in 10 Reference Bead solution (Sigma cat # P2477 Lot #116K1612) diluted in FACS buffer was added to each tube.
Samples were analysed using FACScalibur II and FloJo software.

Structure (SMILES) | EC50 [1] | off-rate from m-TNFα [2] | cross species monomer subunit exchange [2] | Kd ([3]; calculated from koff/kon, read-out: dissociation constant (KD)) | dissociation half-life (t1/2) [3] | kon [3] | koff [3] | effect of compound alone on neutrophil recruitment [4] | neutrophil recruitment versus TNFα in the absence of the compound [4] | inhibition of neutrophil recruitment ([4]; sample 2, ratio compound:TNFα 1:1, i.p.) | inhibition of neutrophil recruitment ([4]; sample 3, ratio compound:TNFα 10:1, i.p.)
Cc1ccc(C)c(Cn2c(C(O)c3ccncc3)nc3ccccc32)c1 (stereo not shown) [Compound (1), [1-(2,5-Dimethylbenzyl)-1H-benzimidazol-2-yl](pyridin-4-yl)methanol] | 298 nM | measurable off-rate | did not prevent monomer subunit exchange | 35 nM | over 2 hours | 2670 M⁻¹ s⁻¹ | 9.46e-05 s⁻¹ | negligible effect | not significantly different | 86% | 85%
Cc1ccc(C)c(Cn2c(C(O)c3ccncc3)nc3ccc(-c4cnn(C)c4)cc32)c1 (stereo not shown) [Compound (2), [1-(2,5-Dimethylbenzyl)-6-(1-methyl-1H-pyrazol-4-yl)-1H-benzimidazol-2-yl](pyridin-4-yl)methanol] | 280 nM | no measurable off-rate | no monomer subunit exchange was observed | – | > 8 h | 1120 M⁻¹ s⁻¹ | 2.24e-05 s⁻¹ | negligible effect | not significantly different | – | –

Reference: patent publication US10705094B2, “TNF receptor signaling modulator assay” (UCB Biopharma SRL, priority 2015, dated 2020)
